Measured values: ChEMBL document CHEMBL3272258, “Quantitative structure-activity relationships. 1. The modified Free-Wilson approach” (J Med Chem, 1976)

How the values were obtained:
[1] = species on record: Rattus norvegicus; assay: Antagonist activity at rat adrenergic receptor assessed as inhibition of adrenaline-induced response
[2] = n-octanol-water partition coefficient, log P of the compound; format: physicochemical
[3] = system: Trichophyton mentagrophytes; assay: Antifungal activity against Trichophyton mentagrophytes assessed as growth inhibition measured for 14 days by tube dilution method; format: functional
[4] = species on record: Rattus norvegicus; assay: Binding affinity to rat thyroid hormone receptor

| Structure (SMILES) | log(1/C) [1] | logP [2] | log(1/C) [3] | log(activity) [4] |
| --- | --- | --- | --- | --- |
| Cc1cccc(C(Br)CN(C)C)c1 (configuration not stated) | 8.46 | – | – | – |
| CN(C)CC(Br)c1ccc(F)c(Cl)c1 (configuration not stated) | 8.19 | – | – | – |
| Cc1cc(Cl)c(OCC(O)CO)c(Cl)c1 (configuration not stated) | – | 2.4 | 3.1 | – |
| Cc1cc(Cl)cc(C)c1OCCCO | – | 3.72 | 3.51 | – |
| Cc1cc(Cl)cc(C)c1OCC(C)O (configuration not stated) | – | 3.52 | 3.51 | – |
| NC(Cc1cc(Br)c(Oc2ccc(O)c(Br)c2)c(Br)c1)C(=O)O (racemic) | – | – | – | 1.64 |
| Cc1cc(Cl)ccc1OCC(C)O (configuration not stated) | – | 2.84 | 3.3 | – |
| CN(C)CC(Br)c1cccc(Cl)c1 (configuration not stated) | 8.16 | – | – | – |
| NC(Cc1cc(I)c(Oc2cc(I)c(O)c(I)c2)c(I)c1)C(=O)O (racemic) | – | – | – | 2 |
| NC(Cc1cc(I)c(Oc2ccc(O)c(Br)c2)c(I)c1)C(=O)O (racemic) | – | – | – | 2.3 |
| Cc1cc(OCC(C)O)cc(C)c1Cl (configuration not stated) | – | 3.18 | 3.68 | – |
| NC(Cc1cc(I)c(Oc2cc(F)c(O)c(F)c2)c(I)c1)C(=O)O (racemic) | – | – | – | 0.26 |
| Cc1ccccc1OCC(O)CO (configuration not stated) [MEPHENESIN] | – | 1.38 | 2.26 | – |
| CC(O)COc1ccc(Cl)cc1Cl (configuration not stated) | – | 2.75 | 3.35 | – |
| CC(O)COc1ccccc1Cl (configuration not stated) | – | 2.05 | 2.84 | – |
| OCC(O)COc1ccc(Cl)cc1Cl (configuration not stated) | – | 1.99 | 2.61 | – |
| NC(Cc1cc(I)c(Oc2cc(F)c(O)c(I)c2)c(I)c1)C(=O)O (racemic) | – | – | – | 1.45 |
| CN(C)CC(Br)c1ccc(Cl)c(Cl)c1 (configuration not stated) | 8.89 | – | – | – |
| CN(C)CC(Br)c1ccc(Br)c(Br)c1 (configuration not stated) | 9.35 | – | – | – |
| CN(C)CC(Br)c1ccc(Br)cc1 (configuration not stated) | 8.89 | – | – | – |
| NC(Cc1cc(I)c(Oc2ccc(O)c(F)c2)c(I)c1)C(=O)O (racemic) | – | – | – | 0.38 |
| Cc1cc(C(Br)CN(C)C)ccc1Br (configuration not stated) | 9.22 | – | – | – |

| Structure (SMILES) | log(1/C) [1] | logP [2] | log(1/C) [3] | log(activity) [4] |
| --- | --- | --- | --- | --- |
| CN(C)CC(Br)c1ccc(Br)c(Cl)c1 (configuration not stated) | 9 | – | – | – |
| OCC(O)COc1ccc(Cl)cc1 (configuration not stated) | – | 1.4 | 2.31 | – |
| Cc1cccc(Cl)c1OCC(C)O (configuration not stated) | – | 2.73 | 2.7 | – |
| CN(C)CC(Br)c1ccc(F)cc1 (configuration not stated) | 8.16 | – | – | – |
| NC(Cc1cc(I)c(Oc2ccc(O)c(I)c2)c(I)c1)C(=O)O (racemic) | – | – | – | 2.74 |
| Cc1cc(C(Br)CN(C)C)ccc1Cl (configuration not stated) | 8.96 | – | – | – |
| CN(C)CC(Br)c1cccc(F)c1 (configuration not stated) | 7.52 | – | – | – |
| NC(Cc1cc(Br)c(Oc2ccc(O)c(I)c2)c(Br)c1)C(=O)O (racemic) | – | – | – | 2.11 |
| OCC(O)COc1c(Cl)cccc1Cl (configuration not stated) | – | 1.88 | 2.37 | – |
| Cc1cc(Cl)c(OCC(C)O)c(Cl)c1 (configuration not stated) | – | 3.16 | 3.47 | – |
| Cc1cc(OCCCO)cc(C)c1Cl | – | 3.38 | 3.93 | – |
| NC(Cc1cc(I)c(Oc2ccc(O)cc2)c(I)c1)C(=O)O (racemic) | – | – | – | -0.43 |
| CN(C)CC(Br)c1ccc(Cl)c(Br)c1 (configuration not stated) | 8.92 | – | – | – |
| NC(Cc1cc(I)c(Oc2cc(Cl)c(O)c(Cl)c2)c(I)c1)C(=O)O (racemic) | – | – | – | -0.05 |
| Cc1cc(Cl)cc(C)c1OCC(O)CO (configuration not stated) | – | 2.76 | 2.76 | – |
| OCCCOc1ccc(Cl)cc1 | – | 2.36 | 3.07 | – |
| CC(O)COc1ccc(Cl)cc1 (configuration not stated) | – | 2.16 | 2.81 | – |
| NC(Cc1cc(Br)c(Oc2cc(I)c(O)c(I)c2)c(Br)c1)C(=O)O (racemic) | – | – | – | 1.1 |
| CN(C)CC(Br)c1ccc(F)c(Br)c1 (configuration not stated) | 8.57 | – | – | – |
| CN(C)CC(Br)c1ccccc1 (configuration not stated) | 7.46 | – | – | – |
| Cc1cc(OCC(C)O)ccc1Cl (configuration not stated) | – | 2.67 | 3.3 | – |
| Cc1ccc(C(Br)CN(C)C)cc1Br (configuration not stated) | 9.52 | – | – | – |

| Structure (SMILES) | log(1/C) [1] | logP [2] | log(1/C) [3] | log(activity) [4] |
| --- | --- | --- | --- | --- |
| Cc1ccc(C(Br)CN(C)C)cc1C (configuration not stated) | 9.3 | – | – | – |
| NC(Cc1cc(Cl)c(Oc2cc(I)c(O)c(I)c2)c(Cl)c1)C(=O)O (racemic) | – | – | – | -1 |
| NC(Cc1cc(I)c(Oc2cc(Br)c(O)c(Br)c2)c(I)c1)C(=O)O (racemic) | – | – | – | 1 |
| Cc1cc(OCC(O)CO)ccc1Cl (configuration not stated) | – | 1.91 | 2.9 | – |
| CN(C)CC(Br)c1cccc(I)c1 (configuration not stated) | 8.4 | – | – | – |
| Cc1ccccc1OCC(C)O (configuration not stated) | – | 2.14 | 2.46 | – |
| Cc1cc(OCC(O)CO)cc(C)c1Cl (configuration not stated) | – | 2.42 | 3.24 | – |
| Cc1cc(Cl)c(OCCCO)c(Cl)c1 | – | 3.36 | 3.67 | – |
| CN(C)CC(Br)c1ccc(I)cc1 (configuration not stated) | 9.25 | – | – | – |
| Cc1cc(Cl)ccc1OCC(O)CO (configuration not stated) | – | 2.08 | 2.33 | – |
| NC(Cc1cc(Br)c(Oc2cc(Br)c(O)c(Br)c2)c(Br)c1)C(=O)O (racemic) | – | – | – | -0.29 |
| Cc1ccccc1OCCCO | – | 2.34 | 2.79 | – |
| Cc1cc(C(Br)CN(C)C)ccc1F (configuration not stated) | 8.82 | – | – | – |
| OCC(O)COc1ccccc1Cl (configuration not stated) | – | 1.29 | 2.31 | – |
| CN(C)CC(Br)c1ccc(Cl)cc1 (configuration not stated) | 8.68 | – | – | – |
| Cc1ccc(C(Br)CN(C)C)cc1 (configuration not stated) | 9.3 | – | – | – |
| CC(O)COc1c(Cl)cccc1Cl (configuration not stated) | – | 2.64 | 3.04 | – |
| Cc1cccc(Cl)c1OCCCO | – | 2.93 | 2.78 | – |
| CN(C)CC(Br)c1cccc(Br)c1 (configuration not stated) | 8.3 | – | – | – |
| Cc1cccc(Cl)c1OCC(O)CO (configuration not stated) | – | 1.97 | 2.33 | – |
